Measured values: a melting point compilation (Tetko et al.; mined from patent text by program, amines drawn as free bases though some values may be those of a salt)

melting point [°C]	SMILES
131 to 132	CCCNC(=O)Cc1ccc2ccn(C3CCN(CCc4ccc(F)cc4)CC3)c2c1
169 to 170	O=C(O)CCc1oc(Cl)nc1-c1ccc(Cl)cc1
169 to 172	CCCc1nc2c(N)nc3cc(-c4cccc(C(=O)N(CC)CC)c4)ccc3c2s1
138 to 139	COc1ccc(/C=C/C(=O)c2cccc(O)c2)cc1OC
37 to 37.5	CC(=O)OCCCc1nc(-c2ccc(Cl)cc2)co1
110	CC(C)C[C@H](NC(=O)OCc1ccccc1)C(=O)N[C@@H](Cc1ccccc1Cl)C(=O)CSCc1ccco1
166 to 168	O=C1CC[N+]([O-])=C(c2ccccc2F)c2cc(Cl)ccc21
86 to 88	Cc1onc(C(=O)c2ccccc2)c1NC(=O)CCl
155 to 157	CCCCc1nc(C(O)C(C)C)c(C(N)=O)n1Cc1ccc(-c2ccccc2-c2nnn[nH]2)cc1 (stereo not drawn)
90 to 93	Cc1cc(N2CCCCCC2)c2ccc(NCc3ccc(C(F)(F)F)cc3)cc2n1
52	Fc1ccc(-c2nccc(Oc3cccc(C(F)(F)F)c3)n2)cc1
164 to 165	CC(CN1CCC(c2noc3cc(F)ccc23)CC1)N1Cc2ccccc2C1 (stereo not drawn)
141	CCOc1nc(=O)n(C(=O)Nc2cccc(Cl)c2)s1
94 to 95	Cc1ccc(CN2C(=NCCCn3ccnc3)c3cccc4cccc2c34)cc1
206 to 210	CC(NC(=O)OCc1ccccc1)C(=O)N1CC(=O)N(CC(N)=O)C1(C)C (stereo not drawn)
247 to 250	O=c1[nH]c2ccccc2c2c(CO)c(CO)nn12
152 to 153	Cn1c(-c2ccccc2Cl)cc2ncccc2c1=O
194 to 196	Nc1ccccc1NC(=O)/C=C/c1ccccc1I
137 to 139	COc1cc(C#N)ccc1C1=CC(C)(C)Oc2ccc(C#N)cc21
117 to 118	CCn1c(Oc2cccc(NS(C)(=O)=O)c2)nnc1[C@@H](C)NS(=O)(=O)c1ccc(Cl)c(Cl)c1
185	N#CC(=Cc1ccc2[nH]ccc2c1)C(=O)c1ccc(O)c(O)c1

melting point [°C]	SMILES
> 300	O=c1ccn(-c2ccc([N+](=O)[O-])cc2)c(=O)[nH]1
123 to 127	CC(=O)C(=Cc1ccc(O)cc1)C(C)=O
140 to 141	CN1CN(c2ccccc2)c2ncccc2C1=O
212 to 214	COc1ccc(-c2nc3cc(Cl)c(Cl)cc3n2C(=O)OCc2ccccc2)cc1[N+](=O)[O-]
114 to 116	O=C(c1ccncc1)c1ccc(Cl)c([N+](=O)[O-])c1
204 to 206	O=C1c2ccncc2C(=O)c2c(Cl)ccc(F)c21
126 to 127	COn1cc(C#N)c(C#N)c1-c1ccc(Cl)cc1
243 to 245	CCN1c2ncccc2C(=O)Nc2c(C)cc(-n3ccnc3)nc21
160 to 162	CN(C)CC1CCCCN1CCCNC(=O)N1c2ccccc2C(=O)Nc2cccnc21 (stereo not drawn)
213 to 214	COC(=O)c1cn2c(n1)COc1ccc(N)cc1-2
223 to 225	CC(=O)OCC1OC(n2cc(Cc3ccc(Br)cc3)c3c(Cl)cccc32)C(OC(C)=O)C(OC(C)=O)C1OC(C)=O (stereo not drawn)
> 260	O=C(c1ccc(C(F)(F)F)cc1)c1ccc(O)cn1
160	COc1ccc(C2COc3cc(O)c(O)cc3C2)cc1 (stereo not drawn)
236 to 238	CCCc1c(OCc2ccc(/C=C3\SC(=S)NC3=O)cc2)ccc(C(C)=O)c1O
98 to 99	Brc1cncc(N2C=CCC2)c1
198 to 202	Cc1cccc(N2CC(=O)N(c3ccc(S(N)(=O)=O)cc3Cl)C2)c1
246 to 247	CCCCc1nc([N+](=O)[O-])c(CSc2ccccc2C(=O)O)n1Cc1ccc(C(=O)O)cc1
141	OCc1cccc(/C=C/c2ccc3ccc(Cl)cc3n2)c1
258 to 259	CC1=NN(c2cc(Cl)c(Sc3ccc(Cl)cc3)c(Cl)c2)C(=O)NC1
65 to 67.5	Cc1ccc(S(=O)(=O)OC2CCC3(CC2)OCCO3)cc1

Second part, the compound before the results:

SMILES	melting point [°C]
CCCCOc1cc(CCC(=O)O)ccc1CCCc1ccc(OCCCC)c(OC)c1	64
COC(=O)CC1CCN(C(=O)c2cnc(-c3ccc(C(=N)NC(=O)OC)cc3)nc2OC)CC1	193 to 195
CC(NC(=O)CBr)c1ccccc1 (stereo not drawn)	60 to 61
CCOc1ccc(C(=O)CCC(=O)Nc2cc(OCCC(C)C)cc(-c3ccccc3)n2)cc1OCC	122 to 123
CCCCCOc1nc(N)nc2c1ncn2C1C=CC(CO)C1 (stereo not drawn)	139 to 141
Cc1nn(-c2cccnc2)cc1NC1CC1	104 to 107
COc1ccc(-c2nc(C)c(C(=O)OCC[Si](C)(C)C)s2)cc1	80 to 82
Cc1cccc2c1C[C@H](C(=O)O)[C@@H]2C (relative stereo)	132 to 135
CCCCCCCCCCCCCCCCCCc1ccc(O)c([N+](=O)[O-])c1	71
Cc1ncc2cc(-c3c(Cl)cccc3Cl)c(N)nc2n1	287 to 289
Cc1c(C(=O)Nc2nncs2)nnn1Cc1ccc(Cl)c(Cl)c1	216
CCCCCCCCCCCCCCCC(=O)OCC1OC(n2cc(C)c(=O)[nH]c2=O)CC1F (stereo not drawn)	65 to 66
COC(=O)CCC(=O)c1ccc(CCCCCCNC(C)=O)cc1	87 to 89
N#CCCCCCCCCCCCCC#N	< 40
NCC1CCc2[nH]c3ccc(Cl)c(Cl)c3c2C1 (stereo not drawn)	169 to 170
CN(C)CCCC1(C)CCc2cccc(O)c2O1 (stereo not drawn)	127 to 133

SMILES	melting point [°C]
COc1ccc(C2=NN(CCCCCCN)C(=O)[C@H]3CC=CC[C@@H]23)cc1OC (relative stereo)	141 to 143
CNC(=O)C1SCSC(=NO)S1 (stereo not drawn)	129 to 130
CC(C)(C)OC(=O)N[C@@H](CC1CCCCC1)[C@@H]1CO1	58 to 59.5
Cc1ccc(C(=O)Nc2c[nH]nc2C(=O)NCCC(F)(F)F)cn1	196 to 197
COc1cc(OC)nc(Nc2cc(C)ccc2N)n1	128 to 129
O=C1N(C(c2ccccc2)c2ccccc2)c2ccccc2C1(O)c1cc2c(cc1O)OCCC2 (stereo not drawn)	204 to 206
COC(=O)CCCCCOc1ccc(NC(=O)OCCOC(=O)Nc2ccc(OCCCCCC(=O)OC)cc2)cc1	118 to 120
CC(=O)NC(CF)COC1CCN(c2nc3ccc(OCC4CC4)cc3o2)CC1 (stereo not drawn)	120 to 121
CC(C)(C)OC(=O)NC(Cc1c[nH]c2ccccc12)C(=O)C=Cc1cc(C(F)(F)F)cc(C(F)(F)F)c1 (stereo not drawn)	137 to 138
C[C@@](O)(CO)COc1ccc(Br)cc1	90
Cc1cc(F)ccc1-c1ccc(S(=O)(=O)N2c3ccccc3CC2C(=O)NCCOc2ccc(CC(=O)O)cc2)cc1 (stereo not drawn)	99 to 105
Cc1nc2c3c(c(C(=O)N4CCC4)cc2n1C)CCC1(Cc2ccccc2C1)N3	222 to 223
Cn1nc(C#N)nc1NCCCOc1cccc(CN2CCCCC2)c1	66 to 67
CSc1nc(OCC(F)(F)F)c(C#N)c(N2CCc3ccccc3CC2)n1	108 to 110
CCOC(=O)C(=CN(C)C)C(=O)C(Cl)Cl	71 to 72
CCCc1ncc(C(=O)OCC)c(NCc2ccc(-c3ccccc3-c3nnn[nH]3)cc2)n1	146 to 147
